# From US20040058056A1, “Drug diffusion coatings, applications and methods” (priority 2003, published 2004)
# Tests used:
# Type in all cases: physicochemical
# [1] = Elution of daunomycin from PHEMA-coated stainless steel coupons with TMCTS plasma membrane; settings: buffered saline pH 7.4; absorbance at 480 nm; different TMCTS plasma deposition times
# Procedure: Before drug application and plasma coating to 0.71 cm×0.71 cm 316 stainless steel coupon surfaces, all the coupons were cleaned with Acationox detergent, rinsed exhaustively with water, and air-dried. The coupons were then dip-coated in 80% ethanol containing 5% PHEMA and 5 mg/ml of daunomycin. After dipping, the coupons were wicked to remove excess solution, and air-dried under a gentle flow of warm air. Thereafter, the coated coupons were stored in the dark. The drug-coated coupons were then plasma-deposited with TMCTS for varying amounts of time. The plasma was generated at 83 W and 55 mTorr with a mass flow rate of 84 sccm of TMCTS monomer vapor. The coating thickness could be precisely controlled by plasma deposition time, with a coating thickness in the range of 5 to 200 nm.
# The coupons were eluted in buffered saline at pH 7.4. The eluted drug was measured spectrophotometrically at 480 nm for daunomycin. The absorbance change was proportional to the concentration of daunomycin.
# [2] = Elution of rapamycin from TMCTS plasma-coated stainless steel coupons in porcine serum
# Procedure: The elution time of rapamycin from the surface of stainless steel coupons was evaluated as a function of plasma deposition time. One side of stainless steel coupons was coated with 100±10 μg of rapamycin dissolved in chloroform (0.2%, w/v). After air drying at room temperature, the coated surfaces were plasma coated with TMCTS. The plasma was generated at 83 W and 55 mTorr with a mass flow rate of 84 sccm at various time lengths between 30 and 300 seconds. The coated coupons were extracted with porcine serum mixed with 0.02% NaN3 as the preservative at 37° C. The remaining amounts of the drug on the coupon was extracted with 2 ml of methanol for 2 hours at room temperature and assayed by HPLC at 277 nm, utilizing an HPLC system calibrated with known amounts of rapamycin.
# [3] = Elution of NPC-15199 from PHEMA-coated stainless steel coupons with TMCTS plasma membrane; settings: buffered saline pH 7.4, room temperature
# Procedure: N-(9-fluorenylmethoxycarbonyl)-L-leucine (NPC-15199), an anti-inflammatory drug, was coated on a stainless steel coupon by dip-coating the coupon in a mixture of 20 mM NPC-15199 in a 60:40 solution of acetone:water containing 7.5% poly(2-hydroxyethyl methacrylate) (“PHEMA”). The coupon was then air dried for about 5 minutes at approximately 60° C. TMCTS plasma was deposited on different NPC-15199 coated coupons for 20, 40, 60 and 80 seconds, respectively. […] at pH 7.4 at room temperature. Elution of NPC-15199 was measured by change in absorbance using a spectrophotometer.
# The plasma was generated at 83 W and 55 mTorr with a mass flow rate of 84 sccm; under these conditions a micro-thin siloxane membrane is deposited on the targeted surface, with the thickness directly related to the length of time of plasma deposition.
compound,measurement,setting,value
COc1cccc2c1C(=O)c1c(O)c3c(c(O)c1C2=O)C[C@@](O)(C(C)=O)C[C@@H]3O[C@H]1C[C@H](N)[C@H](O)[C@H](C)O1 [daunomycin],drug diffusion time,[1],controlled by the TMCTS coating thickness
CO[C@H]1C[C@@H]2CC[C@@H](C)[C@@](O)(O2)C(=O)C(=O)N2CCCC[C@H]2C(=O)O[C@H]([C@H](C)C[C@@H]2CC[C@@H](O)[C@H](OC)C2)CC(=O)[C@H](C)/C=C(\C)[C@@H](O)[C@@H](OC)C(=O)[C@H](C)C[C@H](C)/C=C/C=C/C=C/1C [rapamycin],% Remaining,"[2]; 0 (uncoated) TMCTS deposition, elution time 0 hours",100%
same,% Remaining,"[2]; 0 (uncoated) TMCTS deposition, elution time 17 hours, porcine serum 37° C.",0%
same,% Remaining,"[2]; TMCTS deposition 30 seconds, elution time 64 hours, porcine serum 37° C.",2.6%
same,Estimated Half-Life,"[2]; TMCTS deposition 30 seconds, porcine serum 37° C.",12 h
same,% Remaining,"[2]; TMCTS deposition 60 seconds, elution time 64 hours, porcine serum 37° C.",33.2%
same,Estimated Half-Life,"[2]; TMCTS deposition 60 seconds, porcine serum 37° C.",41 h
same,% Remaining,"[2]; TMCTS deposition 120 seconds, elution time 47.5 hours, porcine serum 37° C.",67.7%
same,Estimated Half-Life,"[2]; TMCTS deposition 120 seconds, porcine serum 37° C.",84 h
same,% Remaining,"[2]; TMCTS deposition 180 seconds, elution time 24 hours, porcine serum 37° C.",76.3%
same,Estimated Half-Life,"[2]; TMCTS deposition 180 seconds, porcine serum 37° C.",94 h
same,% Remaining,"[2]; TMCTS deposition 240 seconds, elution time 24 hours, porcine serum 37° C.",93.6%
same,Estimated Half-Life,"[2]; TMCTS deposition 240 seconds, porcine serum 37° C.",211 h
same,% Remaining,"[2]; TMCTS deposition 300 seconds, elution time 47.5 hours, porcine serum 37° C.",91.9%
same,Estimated Half-Life,"[2]; TMCTS deposition 300 seconds, porcine serum 37° C.",360 h
"CC(C)C[C@H](NC(=O)OCC1c2ccccc2-c2ccccc21)C(=O)O [NPC-15199, N-(9-fluorenylmethoxycarbonyl)-L-leucine]",T1/2 (half-elution time),[3]; TMCTS plasma deposition time 20 seconds,0.833 min
same,T1/2 (half-elution time),[3]; TMCTS plasma deposition time 40 seconds,1.67 min
same,T1/2 (half-elution time),[3]; TMCTS plasma deposition time 60 seconds,2.5 min
same,T1/2 (half-elution time),[3]; TMCTS plasma deposition time 80 seconds,4 min
